In one experiment the test system is CCRF-CEM. In words: Cytotoxicity in human CCRF-CEM cells by resazurin reduction assay. The class given is functional, cell-based.
A further experiment relates to Caco-2. In words: Cytotoxicity in human Caco2 cells after 72 hrs by MTT assay. The class given is functional, cell-based. The settings on record: Caco-2, 72 h. (Tetrazolium assays rely on reduction of a dye to a coloured formazan, in cell work by metabolically active cells.)
The test system of a further experiment is A-375. In words: Cytotoxicity in human A375 cells. Format: functional, cell-based.
The subject of experiment [1] is K562. In words: Cytotoxicity in human K562 cells by SRB assay. The class given is functional, cell-based. On the technique in general: In SRB staining, fixed cells bind dye roughly in proportion to their protein.
In experiment [2] the test system is K562. In words: Cytotoxicity in human K562 cells after 24 hrs by trypan blue exclusion assay. The class given is functional, cell-based. The settings on record: K562, 24 h.
The nature of experiment [3]: Inhibition of nuclear factor-kappa-B (unknown origin) expressed in human K562 cells pre-incubated for 2 hrs followed by TNFalpha stimulation for 6 hrs by luciferase reporter gene assay. Format: cell-based. A general note: A reporter such as luciferase makes a cellular process visible.

Molecules are shown by their SMILES. pIC50: −log10 of the molar value. Converted amounts (≈) assume the structure as drawn. A value given as a limit tells only on which side of the number the result lay.

As a reminder, the pIC50 is −log10 of the IC50, conventionally taken in molar units. Read a high pIC50 as a small IC50. Take `COc1cc(O)cc(OC)c1C(=O)/C=C/c1ccccc1`: in the experiment on CCRF-CEM, the pIC50 was ≥ 5.00.
The molecule `O=c1c(O)c(-c2ccccc2)oc2ccccc12` [FLAVONOL] had a pIC50 in the experiment with Caco-2 of 4.38.
For `COc1cc(O)c(OC)c(O)c1C(=O)/C=C/c1ccccc1`, the pIC50 with CCRF-CEM is ≥ 5.00.
A word on the IC50: it is the concentration at which inhibition is half-maximal. Low readings indicate inhibition by little substance, high ones a need for much substance. Molecule `O=c1c(O)c(-c2ccc(O)cc2)oc2cc(O)cc(O)c12` [KAEMPFEROL] returned an IC50 in the experiment with A-375 of 0.012 mg/L (≈ 0.0421 µM).
In the experiment with Caco-2, `O=c1cc(-c2ccccc2)oc2cc(O)cc(O)c12` [CHRYSIN] showed a pIC50 of 5.02.
`O=C1c2ccc(O)cc2O[C@H](c2ccc(O)c(O)c2)[C@H]1O` [FUSTIN]: the IC50 in the experiment with K562 [1] was > 100 mg/L.
On to `O=c1c(O)c(-c2ccc(O)c(O)c2)oc2cc(O)cc(O)c12` [QUERCETIN], for which the IC50 in the experiment on A-375 was determined as 0.00154 mg/L (≈ 0.0051 µM).
In the experiment with Caco-2, `O=c1[nH]cc(F)c(=O)[nH]1` [FLUOROURACIL] gave a pIC50 of 4.22.
For `COc1cc(O)cc(O)c1C(=O)/C=C/c1ccccc1` [CARDAMOMIN], in the experiment on CCRF-CEM, the negative-log IC50 (pIC50) is ≥ 5.00.
`CC1=Cc2c(C(C)C)ccc(C)c2C(=O)C1=O` had a pIC50 in the experiment with K562 [1] of 5.84.
Turning to `C[C@H]1O[C@H](Oc2c(-c3ccc(O)cc3)oc3cc(O)cc(O)c3c2=O)[C@@H](O)[C@@H](O)[C@@H]1O` (single isomer, unassigned) [KAEMPFEROL-3-O-RHAMNOSIDE], the results for the pIC50 (in the experiment with K562 [2]; in experiment [3]) were 4.82 and 5.39, respectively.
With `C[C@@H]1O[C@@H](Oc2c(-c3cc(O)c(O)c(O)c3)oc3cc(O)cc(O)c3c2=O)[C@H](O)[C@H](OC(=O)c2cc(O)c(O)c(O)c2)[C@H]1O`, in the experiment with K562 [1], the IC50 worked out at 30.5 mg/L.
`COc1ccc([C@@H]2CC(=O)c3c(O)cc(O)cc3O2)cc1O` [HESPERETIN] had a pIC50 with Caco-2 of 4.18.
Take `O=c1cc(-c2ccccc2)oc2ccccc12` [FLAVONE]: the pIC50 in the experiment on Caco-2 is 4.68. This pIC50 is 0.50 log units higher than that of the molecule before.

For the origin of these results see ChEMBL document CHEMBL4270499, “Recent discoveries of anticancer flavonoids” (Eur J Med Chem, 2017).
